Test results from the NIST ThermoML archive (doi:10.1021/je301347v).

Experiment: xn = mol fraction of the nth substance listed
Conditions: 101 kPa, Liquid, Voltage change across transformer (no electrode)

CCCC[n+]1cccc(C)c1.F[B-](F)(F)F [1-butyl-3-methylpyridinium tetrafluoroborate] + CCO
electrical conductivity [S/m]
Conditions | 293.15 K | 303.15 K | 313.15 K | 323.15 K
x1 = 0.0613 | 0.787 | 1.02 | 1.26 | 1.53
x1 = 0.0737 | 0.888 | 1.14 | 1.42 | 1.72
x1 = 0.0915 | 1.02 | 1.31 | 1.63 | 1.96
x1 = 0.1113 | 1.14 | 1.48 | 1.84 | 2.19
x1 = 0.1366 | 1.24 | 1.63 | 2.04 | 2.43
x1 = 0.167 | 1.4 | 1.81 | 2.22 | 2.68
x1 = 0.1985 | 1.47 | 1.92 | 2.36 | 2.81
x1 = 0.2393 | 1.52 | 1.97 | 2.4 | 2.89
x1 = 0.2811 | 1.5 | 1.96 | 2.4 | 2.89
x1 = 0.3174 | 1.41 | 1.85 | 2.31 | 2.85
x1 = 0.3652 | 1.32 | 1.76 | 2.24 | 2.76
x1 = 0.4385 | 1.19 | 1.61 | 2.11 | 2.54
x1 = 0.4652 | 1.09 | 1.49 | 1.92 | 2.45
x1 = 0.5281 | 0.934 | 1.28 | 1.68 | 2.21
x1 = 0.5747 | 0.823 | 1.17 | 1.56 | 2.04
x1 = 0.6938 | 0.51 | 0.77 | 1.15 | 1.63
x1 = 0.7799 | 0.37 | 0.56 | 0.891 | 1.33
x1 = 0.9102 | 0.215 | 0.36 | 0.59 | 0.903
x1 = 1 | 0.155 | 0.281 | 0.461 | 0.704

CCCC[n+]1cccc(C)c1.F[B-](F)(F)F [1-butyl-3-methylpyridinium tetrafluoroborate] + CO
electrical conductivity [S/m]
Conditions | 293.15 K | 303.15 K | 313.15 K | 323.15 K
x1 = 0.0337 | 2.29 | 2.71 | 3.11 | 3.5
x1 = 0.0438 | 2.45 | 2.89 | 3.34 | 3.8
x1 = 0.0479 | 2.66 | 3.12 | 3.6 | 4.09
x1 = 0.0567 | 2.9 | 3.41 | 3.96 | 4.53
x1 = 0.0699 | 3.17 | 3.85 | 4.49 | 5.1
x1 = 0.1142 | 3.33 | 3.98 | 4.66 | 5.38
x1 = 0.1504 | 3.37 | 4.06 | 4.74 | 5.5
x1 = 0.1734 | 3.31 | 4.01 | 4.74 | 5.52
x1 = 0.2236 | 3.11 | 3.8 | 4.55 | 5.34
x1 = 0.2696 | 2.78 | 3.44 | 4.15 | 4.89
x1 = 0.3345 | 2.43 | 3.08 | 3.77 | 4.49
x1 = 0.378 | 2.19 | 2.8 | 3.45 | 4.11
x1 = 0.4258 | 1.76 | 2.31 | 2.95 | 3.59
x1 = 0.5198 | 1.3 | 1.82 | 2.3 | 2.87
x1 = 0.61 | 0.944 | 1.32 | 1.78 | 2.27
x1 = 0.729 | 0.472 | 0.686 | 1.04 | 1.58
x1 = 0.8344 | 0.28 | 0.413 | 0.672 | 1.05
x1 = 0.9177 | 0.191 | 0.311 | 0.523 | 0.817
x1 = 1 | 0.155 | 0.281 | 0.461 | 0.704

CCCC[n+]1ccc(C)cc1.F[B-](F)(F)F [1-butyl-4-methylpyridinium tetrafluoroborate] + CCO
electrical conductivity [S/m]
Conditions | 293.15 K | 303.15 K | 313.15 K | 323.15 K
x1 = 0.0448 | 0.696 | 0.877 | 1.01 | 1.1
x1 = 0.0521 | 0.791 | 1.01 | 1.22 | 1.3
x1 = 0.0608 | 0.893 | 1.15 | 1.42 | 1.55
x1 = 0.0701 | 0.991 | 1.28 | 1.58 | 1.76
x1 = 0.0843 | 1.15 | 1.47 | 1.82 | 1.95
x1 = 0.1046 | 1.29 | 1.65 | 2.08 | 2.41
x1 = 0.1232 | 1.39 | 1.8 | 2.26 | 2.64
x1 = 0.1347 | 1.44 | 1.86 | 2.33 | 2.76
x1 = 0.1551 | 1.5 | 1.95 | 2.47 | 2.92
x1 = 0.1602 | 1.51 | 1.97 | 2.49 | 2.96
x1 = 0.2251 | 1.59 | 2.09 | 2.67 | 3.22
x1 = 0.247 | 1.59 | 2.09 | 2.68 | 3.26
x1 = 0.3371 | 1.52 | 2.02 | 2.61 | 3.22
x1 = 0.3512 | 1.5 | 2 | 2.59 | 3.22
x1 = 0.3799 | 1.45 | 1.95 | 2.52 | 3.17
x1 = 0.3856 | 1.44 | 1.94 | 2.52 | 3.16
x1 = 0.4126 | 1.4 | 1.88 | 2.46 | 3.1
x1 = 0.5649 | 1.1 | 1.37 | 2.01 | 2.63
x1 = 0.6798 | 0.851 | 1.02 | 1.61 | 2.16
x1 = 0.7941 | 0.601 | 0.696 | 1.2 | 1.68
x1 = 0.9258 | 0.305 | 0.38 | 0.717 | 1.06
x1 = 0.9963 | 0.154 | 0.242 | 0.459 | 0.74
x1 = 1 | 0.132 | 0.254 | 0.439 | 0.687

CCCC[n+]1ccc(C)cc1.F[B-](F)(F)F [1-butyl-4-methylpyridinium tetrafluoroborate] + CO
electrical conductivity [S/m]
Conditions | 293.15 K | 303.15 K | 313.15 K | 323.15 K
x1 = 0.0426 | 2.81 | 3.25 | 3.55 | 4.09
x1 = 0.0499 | 2.99 | 3.46 | 3.93 | 4.37
x1 = 0.0584 | 3.18 | 3.71 | 4.17 | 4.65
x1 = 0.0716 | 3.38 | 3.99 | 4.56 | 5.02
x1 = 0.0898 | 3.58 | 4.25 | 4.82 | 5.4
x1 = 0.1093 | 3.72 | 4.43 | 5.08 | 5.67
x1 = 0.1256 | 3.76 | 4.52 | 5.2 | 5.82
x1 = 0.1425 | 3.78 | 4.56 | 5.27 | 5.92
x1 = 0.2197 | 3.47 | 4.38 | 5.15 | 5.85
x1 = 0.2475 | 3.31 | 4.22 | 5 | 5.7
x1 = 0.305 | 3.13 | 3.84 | 4.61 | 5.27
x1 = 0.3465 | 2.81 | 3.53 | 4.27 | 4.9
x1 = 0.4593 | 2.18 | 2.68 | 3.3 | 3.83
x1 = 0.5657 | 1.42 | 1.93 | 2.47 | 2.85
x1 = 0.6744 | 0.993 | 1.28 | 1.71 | 1.99
x1 = 0.7908 | 0.565 | 0.761 | 1.12 | 1.29
x1 = 0.8788 | 0.341 | 0.487 | 0.78 | 0.925
x1 = 1 | 0.132 | 0.254 | 0.439 | 0.687

CCCC[n+]1ccccc1.F[B-](F)(F)F [1-butylpyridinium tetrafluoroborate] + CCO
electrical conductivity [S/m]
Conditions | 303.15 K | 313.15 K | 323.15 K
x1 = 0.0353 | 0.785 | 1.02 | 1.32
x1 = 0.0417 | 0.863 | 1.18 | 1.38
x1 = 0.0455 | 1.06 | 1.27 | 1.54
x1 = 0.0461 | 1.04 | 1.29 | 1.54
x1 = 0.0551 | 1.15 | 1.48 | 1.72
x1 = 0.0564 | 1.24 | 1.5 | 1.83
x1 = 0.0634 | 1.44 | 1.64 | 2.22
x1 = 0.0735 | 1.43 | 1.82 | 2.12
x1 = 0.084 | 1.56 | 1.98 | 2.31
x1 = 0.1033 | 1.68 | 2.24 | 2.56
x1 = 0.1165 | 1.8 | 2.39 | 2.7
x1 = 0.1291 | 1.86 | 2.51 | 2.92
x1 = 0.1597 | 2.16 | 2.74 | 3.01
x1 = 0.1656 | 2.28 | 2.77 | 3.23
x1 = 0.2093 | 2.38 | 2.95 | 3.41
x1 = 0.2237 | 2.44 | 2.96 | 3.43
x1 = 0.2751 | 2.46 | 2.97 | 3.45
x1 = 0.3929 | 2.17 | 2.7 | 3.2
x1 = 0.4464 | 1.96 | 2.5 | 2.86
x1 = 0.5095 | 1.66 | 2.2 | 2.56
x1 = 0.617 | 1.2 | 1.77 | 2.17
x1 = 0.7008 | 0.884 | 1.43 | 1.71
x1 = 0.8158 | 0.566 | 1.03 | 1.28
x1 = 0.8973 | 0.436 | 0.821 | 1.04
x1 = 1 | 0.321 | 0.519 | 0.785

CCCC[n+]1ccccc1.F[B-](F)(F)F [1-butylpyridinium tetrafluoroborate] + CO
electrical conductivity [S/m]
Conditions | 293.15 K | 303.15 K | 313.15 K | 323.15 K
x1 = 0.0432 | 2.87 | 3.37 | 3.91 | 4.28
x1 = 0.0485 | 2.98 | 3.51 | 3.95 | 4.62
x1 = 0.0698 | 3.21 | 3.82 | 4.45 | 5.11
x1 = 0.0901 | 3.45 | 4.17 | 4.89 | 5.46
x1 = 0.1091 | 3.71 | 4.39 | 5.14 | 5.81
x1 = 0.1252 | 3.75 | 4.54 | 5.35 | 6.06
x1 = 0.142 | 3.82 | 4.61 | 5.45 | 6.12
x1 = 0.1629 | 3.79 | 4.59 | 5.49 | 6.19
x1 = 0.1773 | 3.78 | 4.57 | 5.38 | 6.12
x1 = 0.2273 | 3.47 | 4.3 | 5.16 | 6.01
x1 = 0.2401 | 3.43 | 4.26 | 5.13 | 5.94
x1 = 0.2966 | 3.14 | 3.99 | 4.81 | 5.59
x1 = 0.3803 | 2.37 | 3.05 | 3.72 | 4.51
x1 = 0.4277 | 2.07 | 2.71 | 3.39 | 4.08
x1 = 0.4808 | 1.75 | 2.29 | 2.89 | 3.49
x1 = 0.5618 | 1.2 | 1.72 | 2.22 | 2.77
x1 = 0.6317 | 0.894 | 1.35 | 1.81 | 2.35
x1 = 0.698 | 0.74 | 1.07 | 1.45 | 1.89
x1 = 0.8355 | 0.406 | 0.647 | 0.966 | 1.39
x1 = 0.879 | 0.321 | 0.514 | 0.776 | 1.12
x1 = 0.9279 | 0.27 | 0.446 | 0.684 | 0.976
x1 = 1 | 0.181 | 0.321 | 0.519 | 0.785
